Here are results for 90 molecules from a melting point compilation (Tetko et al.; mined from patent text by program, amines drawn as free bases though some values may be those of a salt).

Some results are limits rather than exact numbers.

For the molecule `Cc1ccc(Cn2nc(-c3cc(C(C)(C)C)c(O)c(C(C)(C)C)c3)c3cccnc32)cc1`, the melting point (in general, the temperature, or range, at which the solid turns liquid) was 134 to 135 °C.

As to `CCCN1C(=O)C(NC(=O)C(N)Cc2ccccc2)N=C(N2CCN(C)CC2)c2ccccc21` (stereo not given), the melting point lay within 152 to 153 °C.

The molecule `COc1ccc2cc(I)sc2c1` yielded a melting point of 75 to 77 °C.

Molecule `CC12CC(=O)C3C(CCC4CC(O)CCC43C)C1CCC2C(=O)CCc1ccccn1` (stereo not given) displayed a melting point of 179 to 180 °C.

The molecule `O=C(OCc1ccccc1)N1CCc2c(sc3nc(CCl)c(Cl)c(-c4ccc(OCC(F)(F)F)cc4)c23)C1` showed a melting point of 166 to 167 °C.

Turning to `CCC(=O)N1c2ccccc2CC1C(=O)O` (stereo not given), the melting point was in the range of 173 to 175 °C.

Regarding `CCCCCN(CCC12CC3CC(CC(C3)C1)C2)C(=O)NCC(C)(C)Cc1ccncc1`, the melting point fell in the range of 82.5 to 84.9 °C.

In turn, `COC1Nc2c(ccc(C)c2OC(C)=O)C(=O)N2CCCC12` (stereo not given) yielded a melting point of 147 to 150 °C.

With `O=C1NCC=NN1c1cc(Cl)cc(Cl)c1`, the melting point lay within 179 to 181 °C.

Consider `Cc1[nH]c2ccc(Br)cc2c1-c1ccncc1`, for which the melting point came to 248 °C.

Turning to `CN(C)CCOc1cccc(C=CC(=O)N2CCc3c([nH]c4ccccc34)C2c2ccc3c(c2)OCO3)c1` (stereo not given), the melting point is 76 to 78 °C.

For `COc1cc(OC)c2c(=O)[nH]c(-c3ccc(OCCO)c(-c4ccccc4S(C)(=O)=O)n3)nc2c1`, the melting point is 92 to 93 °C.

`COC(=O)c1cc2c(OC)ccc(OC)c2[nH]1` had a melting point of 145 to 146 °C.

As to `CCCCCCOc1ccc(-c2ncc(-c3ccc(OCc4ccccc4)c(F)c3F)cn2)cn1`, the melting point was found to be 115 °C.

The molecule `CCOCc1nnc2n1-c1ccc(Cl)cc1C(c1ccccc1)=NC2` yielded a melting point of 168 to 170 °C.

Molecule `CN(C(N)=O)c1ccccc1S` yielded a melting point of 73 to 75 °C.

Molecule `O=c1[nH]cnc2c1cnn2CC(O)c1ccccc1` (stereo not given) yielded a melting point of 270 to 271 °C.

As for `O=C(OC(c1ccccc1)c1ccccc1)C1=C(Sc2ccccc2)CC2CC(=O)C12` (stereo not given), the melting point was in the range of 148 to 150 °C.

The molecule `CCCCCCCCCCCCCCCCCC(=O)NCCO` yielded a melting point of 96 to 99 °C.

Regarding `COCCN(CCOC)CC1=Cc2ccsc2S(=O)(=O)N1Cc1ccc(OC)cc1`, the melting point lay within 75 to 77 °C.

`C[C@@H](Cn1ncc2ccc3c(c21)C[C@@H](OCC(=O)OC(C)(C)C)CO3)N=[N+]=[N-]`: the melting point fell in the range of 77 to 78 °C.

Consider `COC(=O)c1c(C)c(OC)cc(OC)c1C=O`, for which the melting point lay within 164 to 165 °C.

Molecule `CN(CC(=O)O)S(=O)(=O)c1ccc(Cl)cc1` registered a melting point of 180 to 182 °C.

Molecule `C=CCN1C(=O)C(C)(CN2CCN(c3ccccc3OC)CC2)N=C1c1cccnc1` (stereo not given) gave a melting point of 66 to 69 °C.

The molecule `CCCCCCCCCCCCCCCCCC(=O)Nc1ccc(NC(=O)NS(=O)(=O)c2ccc(OC)cc2)cc1` returned a melting point of 188 °C.

`CC(=O)C(C#N)c1ccc(F)c(F)c1` (stereo not given): the melting point was 147 to 152 °C.

The molecule `CC1Cc2ccc(Br)cc2C(c2ccc([N+](=O)[O-])cc2)O1` (stereo not given) showed a melting point of 130 to 133 °C.

`CCCCCCCN(Cc1ccc(CCC(C)C)cc1)C(=O)NC1(OC)C=C(C)C=CN1` (stereo not given) had a melting point of 90 to 91 °C.

In turn, `Cn1ncnc1COc1nn2c(-c3ccccc3F)nncc2c1-c1cc(F)ccc1F` returned a melting point of 164 to 165 °C.

Regarding `Cc1cc(CO)cc(C)c1O`, the melting point was in the range of 102 to 104 °C.

The molecule `O=c1cc(N2CCOCC2)oc2ccc(Br)cc12` returned a melting point of 147 to 149 °C.

Turning to `COc1ccc2c(CN3CCC[C@H]3CO)cc3cc4c(cc3c2c1)OCO4`, the melting point is 138 to 139 °C.

With `Cc1oc(-c2ccccc2)nc1COc1ccc(C=O)cc1`, the melting point is 103 to 105 °C.

Turning to `Cc1cc(Cl)ccc1NC(=O)NCc1ccc2c(c1)CN(C1CCC(=O)NC1=O)C2=O` (stereo not given), the melting point lay within 256 to 258 °C.

`Clc1ccc2c(c1)N=C(N1CCN(CC3CC3)CC1)c1ccccc1N2`: the melting point fell in the range of 148 to 151 °C.

As to `CC(C)Sc1nc2c(cc1C#N)C(=O)CC(C)(C)C2`, the melting point is 135 to 136 °C.

As to `COc1ccc2c(NC(N)=O)c(C(=O)Nc3ccc(Cl)cc3Cl)oc2c1`, the melting point is more than 260 °C.

`N/C(=C1/Sc2ccccc2C1=O)c1ccc(F)cc1`: the melting point is 158 °C.

Molecule `CS(=O)(=O)c1ccc(C2=C(c3ccc(F)cc3)CCC2)cc1` came in with a melting point of 138 to 139 °C.

As to `CCCc1nc2c(N)nc3ccccc3c2n1CCOCCCS(C)(=O)=O`, the melting point is 149 to 151 °C.

In turn, `COc1ccc2c(c1)C(=O)CC1C2C(OC(=O)C(C)(C)C)CC2(C)C(OC(=O)C(C)(C)C)CCC12` (stereo not given) gave a melting point of 183 to 184 °C.

For the molecule `c1cncc(-c2cc(C3CCN(CCc4cccc5ccccc45)CC3)n[nH]2)c1`, the melting point was in the range of 171 to 173 °C.

`COC(=O)c1ccc(OCCNC(=O)C2Cc3ccccc3N2S(=O)(=O)c2ccc(-c3ccc(F)cc3)cc2)c(C(F)(F)F)c1` (stereo not given): the melting point is 90 to 95 °C.

As for `OC(Nc1cccc(C(F)(F)F)c1)c1cccnc1` (stereo not given), the melting point is 102 °C.

In turn, `C=CCc1cc(CN2C(=O)CCc3c2ccc(O)c3CC=C)cc(OC)c1O` had a melting point of 159 to 161 °C.

As for `Cc1cccc(C(=O)Cc2ccnc(N)c2)c1`, the melting point fell in the range of 119 to 120 °C.

In the case of `O=[N+]([O-])c1ccc(Oc2ccc(C(F)(F)F)cc2Cl)cc1SCl`, the melting point lay in the range of 74 to 78 °C.

As for `CC1(CNC(=O)OCc2ccccc2)CCCCn2c1nc(-c1ccncn1)cc2=O` (racemic), the melting point is 118 to 120 °C.

`CC(C)[C@H](NC(=O)[C@@H](C)c1ccc(Nc2nc(C(F)(F)F)cs2)cc1)C(=O)O` gave a melting point of 99 to 101 °C.

Consider `Cc1ccc(COC(=O)N2CCC[C@H]2C(=O)N[C@H](CO)C(C)C)cc1`, for which the melting point was in the range of 122 to 124 °C.

As for `NCCN1CCC(Nc2nc3cncnc3n2Cc2ccc(F)cc2)CC1`, the melting point is 146 °C.

The molecule `COCCN(CCOC)c1ccc(Nn2c(C)ccc2C)nn1` came in with a melting point of 112 to 114 °C.

As for `Oc1ccc2cc(-c3cnc(Cc4ccccc4)o3)ccc2c1`, the melting point is 200 to 202 °C.

For the molecule `CC(C)(C)c1nn(-c2cc(O)c(Cl)cc2Cl)c(=O)s1`, the melting point was in the range of 130 to 132 °C.

As for `CC(=O)Nc1cc(C)nn1C`, the melting point lay in the range of 45 to 46 °C.

Turning to `COc1nc(C(C)(C)O)cnc1NS(=O)(=O)c1cccc(Cl)c1Cl`, the melting point lay within 192 to 193 °C.

Regarding `CCCNC(=O)c1nc(-c2ccccc2)c(-c2ccc(=O)n(CC)n2)s1`, the melting point is 106 to 108 °C.

`NCc1ccn(-c2cc3c(cc2[N+](=O)[O-])[nH]c(=O)c(=O)n3CC(=O)O)c1` displayed a melting point of more than 270 °C.

The molecule `Nc1ccccc1C(=O)NCCCN1CCC(C(=O)c2ccc(F)cc2)CC1` gave a melting point of 113 °C.

As to `COC(=O)COc1ccc(C=Cc2nc(-c3ccccc3)c(-c3ccccc3)o2)cc1`, the melting point was in the range of 122 to 123 °C.

For the molecule `Clc1ccc(-n2nc(C3CC3)cc2C2CC2)nn1`, the melting point lay in the range of 102 to 105 °C.

In turn, `CC12CCC(=O)C=C1CCC1C2CCC2(C)C1CCC2(O)C(N)=O` (stereo not given) displayed a melting point of 233 to 234 °C.

With `Clc1ccccc1C(Oc1ccccc1)C1CNCCO1` (stereo not given), the melting point lay within 80 to 102 °C.

The molecule `O=C(Nc1ccc(Br)cc1)c1ccccc1[N+](=O)[O-]` registered a melting point of 202 to 205 °C.

In turn, `Nc1cc(F)c(Cl)c(Br)c1Cl` came in with a melting point of 126 to 130 °C.

`Cc1noc(NS(=O)(=O)c2ccccc2-c2ccc(C(F)(F)C(C)C)cc2)c1C` showed a melting point of 52 to 58 °C.

The molecule `NS(=O)(=O)c1ccc(-c2c(-c3ccccc3)noc2CC(=O)O)cc1` displayed a melting point of 61 °C.

As to `CC(=O)NC1CCc2c([nH]c3cc(O)ccc23)C1` (stereo not given), the melting point fell in the range of 245 to 246 °C.

With `CSc1nc2nsc(N)c2s1`, the melting point lay within 160 to 166 °C.

In turn, `NC1CCN(c2ccc([N+](=O)[O-])cn2)CC1` had a melting point of 115 to 117 °C.

In turn, `Cc1cc2c(cc1Br)nc1n2CCC1` came in with a melting point of 167 to 170 °C.

Molecule `C=CCOc1ccccc1OCC(O)CNC1CCC(N2CCNC2=O)CC1` (stereo not given) showed a melting point of 154 to 155 °C.

`N#CNc1cc(Cl)ccc1N1CCOCC1`: the melting point lay within 305 to 308 °C.

`Cn1ncc(/C=C/C(=O)Nc2ccc(Cc3nc4c(s3)CCCC4)cc2)c1-c1ccc(F)cc1` gave a melting point of 205 to 206 °C.

Molecule `CS(=O)(=O)c1ccc(C(Cc2ccccc2)C(=O)Nc2nc3ccccc3o2)cc1` (stereo not given) yielded a melting point of 118 to 119 °C.

`CC(Cl)(Cl)C1(O)NC(=O)C(=O)N1` registered a melting point of 220 °C.

In turn, `COc1ccc(Br)c(C(=O)N2CCN(S(=O)(=O)c3ccccc3)CC2)c1` displayed a melting point of 180 °C.

Molecule `CC(=S)NCC1CC(c2ccc(-n3cccc3)c(F)c2)=NO1` (single isomer, unassigned; (-)) returned a melting point of 152 to 153 °C.

`CCCCCCCCCCc1ccc2cc(OC)ccc2c1` showed a melting point of 48.6 to 49.3 °C.

`CCCn1c(=O)c2[nH]c(C(CO)Cc3ccccc3)nc2n(CCC)c1=O` (stereo not given) yielded a melting point of 145 to 146 °C.

In the case of `CS(=O)(=O)c1ccc(-c2[nH]nc(C(=O)CCCO)c2-c2ccc(C#N)cc2)cc1`, the melting point lay in the range of 169 to 171 °C.

`CC(=O)Oc1cccc(-c2c3ccccc3c(Br)c3sc4ccccc4c23)c1` displayed a melting point of 74 to 76 °C.

Take `CC(C)C(=O)Nc1cc(C(C)(C)C)on1`: the melting point is 123 to 124 °C.

Consider `COc1ccc(CNc2nc(C)nc(C)c2Cl)cc1Oc1ccc2ncc([N+](=O)[O-])n2n1`, for which the melting point is 273 to 274 °C.

Take `CCCn1nc(SCCCCCC(=O)O)c(C(=O)O)c1Cc1cc2c(cc1Cl)OCO2`: the melting point turned out to be 88 °C.

Regarding `CONC(=O)NC1CCC(=O)c2ccccc21` (stereo not given), the melting point was in the range of 148 to 151 °C.

In the case of `COc1cc(OC)c2c(=O)c(OCCCOc3ccc(C(C)=C4SC(=O)NC4=O)cc3)c(-c3ccc(OC)c(OC)c3)oc2c1`, the melting point lay in the range of 198 to 200 °C.

Take `CCC(=O)Nc1nc(C(Cl)(Cl)Cl)ns1`: the melting point worked out at 150 °C.

For `Clc1cccc(C2(Cn3cncn3)OCCO2)c1`, the melting point came out at 114 °C.

The molecule `CC(C)(C)OC(=O)CCc1cc(S(C)(=O)=O)cc(-c2nc(=O)c3ccc(F)cc3s2)n1` had a melting point of 178 °C.
